Values joined by “and” are separate entries in the source; they are usually repeats but may differ in a detail not shown here. Equal values may be shown once.
What was measured:
ACE8/8 mice [1] = assay: Kaplan-Meier survival analysis of ACE8/8 mice (sudden cardiac death); assay type: in vivo, mouse; details: 1.5 mg/kg intraperitoneal twice weekly, 30 days of treatment and observation, untreated ACE8/8 10.2±1.5 days
Procedure: Previously, a transgenic mouse model of RAS activation was developed by overexpressing ACE restricted to the heart (ACE8/8 mice) via replacement of the somatic ACE promoter with the cardiac-specific α-myosin heavy chain promoter (9). These mice (ACE8/8) are not hypertensive, have structurally normal hearts with a normal left ventricular ejection fraction (LVEF), and have no ventricular fibrosis.
(§1) The animal experiments were conducted according to the National Institutes of Health (NIH) Guide for the Care and Use of Experimental Animals and were approved by the University of Illinois Institutional Animal Care and Use Committee. Mice of both sexes were treated with 1.5-mg/kg PP1 (Enzo Life Sciences, Plymouth Meeting, Pa.), a specific inhibitor of c-Src tyrosine kinase, twice weekly for 4 consecutive weeks by intraperitoneal injection (21-23). PP3 (Enzo Life Sciences) was administered intraperitoneally at the same dose (1.5 mg/kg twice weekly for 4 consecutive weeks). The treatment of all animals was initiated when the mice were 30 days old.
The values are presented as the mean±the SEM. […] The survival data were analyzed with the Kaplan-Meier method, and the value was calculated with the log-rank test. The correlation was assessed with the Pearson correlation coefficient method.

Cx43 [2] = assay: Western blot of ventricular tissue, Cx43; assay type: in vivo, mouse
Procedure: as §1
The mice were killed, and their hearts were excised. The ventricular tissue was homogenized in a buffer containing 20 mM of tris-(hydroxymethyl)-aminomethane (Tris-C1) (pH, 7.4), 150 mM of sodium chloride (NaCl), 2.5 mM of ethylenediamine tetraacetic acid (EDTA), 1% Triton-100, 10 μL/mL of phenylmethylsulfonyl fluoride (PMSF), 10 μL/mL of protein inhibitor cocktail (Pierce, Rockford, Ill.), and 10 μL/mL of phosphatase inhibitor cocktail II (Sigma-Aldrich, St. Louis, Mo.). Protein samples (5 to 20 μg) were separated via 10% sodium dodecyl sulfate polyacrylamide gel electrophoresis (SDS-PAGE) and were transferred to nitrocellulose membranes. The membranes were blotted with the primary antibodies against c-Src, phosphorylated (Tyr 416) c-Src, and Cx43 (Cell Signaling, Danvers, Mass.). For a loading control, the membranes were blotted with a primary antibody against glyceraldehyde-3-phosphate dehydrogenase (GAPDH; Santa Cruz Biotech, Santa Cruz, Calif.). After treatment with secondary antirabbit or antimouse antibodies, imaging was performed with enhanced chemiluminescence. The radiographic film images were scanned and analyzed with NIH ImageJ software.

Cx43 [3] = assay: Immunohistochemistry (immunostaining) for Cx43 in mouse hearts; assay type: in vivo
Procedure: as §1
The mouse hearts were fixed in 10% formalin, after which 8-μm thick sections were blocked for 1 hour at room temperature and were then incubated with anti-Cx43 antibodies overnight at 4° C. at concentrations known to provide the best signal-to-noise ratio. The slides were reviewed with a Zeiss Axioskop microscope (Carl Zeiss, Inc, Thornwood, N.Y.), and photomicrographs with original magnification×40 were taken from the apex, the mid-left ventricle (LV), and the LV base. From each of those sites, photomicrographs were taken from the endocardium and epicardium. The Cx43 content was quantified with the use of a grid that divided the field of view into 200 squares. At the intersection points aligning with the intercalated disks, Cx43 was scored as “1” (present) or “0” (absent). The results were expressed as the percentage occupied by Cx43 in the total area examined, excluding pseudospaces. This method has been used previously to quantify levels of collagen and Cx43 in cardiac tissue (24; 25).

gap junctions = assay: Functional assessment of Cx43: Lucifer yellow dye spread in intact heart muscle; assay type: in vivo, mouse; details: hearts of treated ACE8/8 mice
Procedure: as §1
We used an established technique for measuring Cx43 function that involves fluorescent dye introduction and diffusion in intact heart muscle (26). Fresh hearts were obtained from wild-type, ACE8/8, ACE8/8 PP1-treated, and ACE8/8 PP3-treated mice. A sample from each heart was placed in phosphate buffered saline at 37° C., the anterior surface of the LV was punctured with a 27-gauge needle, and the sample was incubated with a droplet of 0.5% Lucifer yellow (LY) and a droplet of 0.5% Texas Red Dextran (TRD) in 150 mM of LiCl solution. […] Dye spread in longitudinal and transverse directions was assessed.

wild-type mice = assay: Treatment of wild-type mice with PP1 (deaths, adverse reactions); assay type: in vivo, mouse
Procedure: as §1

ACE8/8 mice [4] = assay: Electrophysiology study: VT inducibility by burst pacing; assay type: in vivo, mouse; details: treated ACE8/8 mice, untreated ACE8/8 86.9%, wild-type 3.3%
Procedure: as §1
The mice were anesthetized with an intraperitoneal injection of ketamine (100 mg/kg) and xylazine (5 mg/kg). After cutdown, a 1.1-F catheter with 0.5-mm interelectrode spacing (EPR 800, Millar Instruments, Houston, Tex.) was placed into the right jugular vein and was advanced into the right ventricle. A constant current stimulator (A320, World Precision Instruments, Sarasota, Fla.) connected to a laptop computer was used for cardiac stimulation. During the experiment, body temperature was maintained at 37° C. with a warming pad. Burst pacing at cycle lengths of 100 to 50 ms was used to test for VT inducibility. A rhythm with more than 3 consecutive ventricular beats was considered to be VT.

c-Src = molecular target: T1, c-Src (Mus musculus, UniProt P05480); assay: Western blot of ventricular tissue, total c-Src; assay type: in vivo; details: four weeks i.p. treatment, corrected for GAPDH
T1 construct: The ventricular tissue was homogenized in a buffer; from tissue; host or cells: mouse ventricular tissue (wild-type and ACE8/8 mice)
T1 sequence (P05480 whole entry): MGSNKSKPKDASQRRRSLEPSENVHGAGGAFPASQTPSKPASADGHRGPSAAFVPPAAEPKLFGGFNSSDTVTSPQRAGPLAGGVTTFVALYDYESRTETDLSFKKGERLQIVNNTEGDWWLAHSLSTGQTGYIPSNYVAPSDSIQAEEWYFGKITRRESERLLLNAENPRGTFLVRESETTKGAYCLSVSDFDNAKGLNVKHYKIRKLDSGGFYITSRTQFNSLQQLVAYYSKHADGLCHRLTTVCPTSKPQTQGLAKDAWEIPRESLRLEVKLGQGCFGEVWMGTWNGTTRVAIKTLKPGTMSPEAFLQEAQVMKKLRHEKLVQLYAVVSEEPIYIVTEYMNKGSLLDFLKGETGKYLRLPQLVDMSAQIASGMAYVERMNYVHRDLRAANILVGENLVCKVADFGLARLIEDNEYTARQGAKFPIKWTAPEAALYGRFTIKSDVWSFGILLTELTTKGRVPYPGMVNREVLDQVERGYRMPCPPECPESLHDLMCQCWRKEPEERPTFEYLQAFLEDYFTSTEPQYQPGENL
Procedure: as §1
(§2) The mice were killed, and their hearts were excised. The ventricular tissue was homogenized in a buffer containing 20 mM of tris-(hydroxymethyl)-aminomethane (Tris-C1) (pH, 7.4), 150 mM of sodium chloride (NaCl), 2.5 mM of ethylenediamine tetraacetic acid (EDTA), 1% Triton-100, 10 μL/mL of phenylmethylsulfonyl fluoride (PMSF), 10 μL/mL of protein inhibitor cocktail (Pierce, Rockford, Ill.), and 10 μL/mL of phosphatase inhibitor cocktail II (Sigma-Aldrich, St. Louis, Mo.). Protein samples (5 to 20 μg) were separated via 10% sodium dodecyl sulfate polyacrylamide gel electrophoresis (SDS-PAGE) and were transferred to nitrocellulose membranes. […] The radiographic film images were scanned and analyzed with NIH ImageJ software.

[5] = molecular target: T2, phosphorylated (Tyr 416) c-Src (Mus musculus, UniProt P05480); assay: Western blot of ventricular tissue, phospho-(Tyr416) c-Src; assay type: in vivo; details: four weeks i.p. treatment, corrected for GAPDH
T2 construct: The ventricular tissue was homogenized in a buffer; from tissue; host or cells: mouse ventricular tissue (wild-type and ACE8/8 mice)
T2 sequence (P05480 whole entry): as above
Procedure: as §1, §2

Row | SMILES | mean survival time (ACE8/8 mice [1]) | effect on total Cx43 protein level (Western blot), in words (Cx43 [2]; ACE8/8 mice vs untreated ACE8/8) | Cx43 level, ratio of stained area for Cx43 to total field of view (Cx43 [3]; treated ACE8/8 mice, untreated ACE8/8 5.4±0.7%, wild-type 18.3±0.6%) | effect on Cx43 level at the gap junctions (immunostaining), in words (Cx43 [3]; vs untreated ACE8/8 mice) | effect on dye diffusion, in words (gap junctions) | death in treated wild-type mice (wild-type mice; WT mice receiving PP1 1.5 mg/kg i.p. twice weekly for 4 weeks) | adverse reaction in treated wild-type mice (wild-type mice; wild-type mice, PP1 1.5 mg/kg i.p. twice weekly for 4 weeks) | VT inducibility rate (ACE8/8 mice [4]) | total c-Src protein level, relative to untreated ACE8/8 mice (c-Src) | phospho-(Tyr416) c-Src protein level, relative to untreated ACE8/8 mice [5] | increase in Cx43 protein level vs untreated ACE8/8 mice (Western blot) (Cx43 [2]; ACE8/8 mice, four weeks i.p. treatment) | Cx43 level relative to normal level in wild-type mice (Western blot) (Cx43 [2]; treated ACE8/8 mice, untreated ACE8/8 36%) | increase in Cx43 level/content in ACE8/8 mouse hearts (immunostaining) (Cx43 [3]; vs untreated ACE8/8 mice) | overall Lucifer yellow dye spread (gap junctions; untreated ACE8/8 0.14±0.01 mm, WT 0.21±0.02 mm)
1 | Nc1ncnc2c1cnn2-c1ccccc1 [PP3, 1-phenyl-1H-pyrazolo[3,4-d]pyrimidin-4-amine] | 11.2 ± 1.2 days | did not increase | 6.5+/−1% | did not increase | no statistically significant effect |  |  |  |  |  |  |  |  | 
2 | Cc1ccc(-c2nn(C(C)(C)C)c3ncnc(N)c23)cc1 [PP1, 1-(1,1-dimethylethyl)-1-(4-methylphenyl)-1H-pyrazolo[3,4-d]pyrimidin-4-amine] | 24.7 ± 0.2 days |  |  |  |  | No death happened | not associated with any adverse reaction | 50% | 58% | 75% | 2.1 fold | 68% | 2 fold and 2.0 fold | 0.20±0.02 mm and 0.21±0.02 mm

Source: patent publication US20110207741A1, “Activation of the Renin-Angiotensin System (RAS) and Sudden Cardiac Death” (THE BOARD OF TRUSTEES OF THE UNIVERSITY OF ILLINOIS, priority 2010, published 2011)
